For one data set, the system named is TNF-α. The data set can be described thus: TNF-α secretion (h) (PBMC). The data set is classed as cell-based, human. The settings on record: LPS (1 μg/ml), 24 h/37° C., EIA, "Not active" = less than 25% inhibition at highest tested concentration 1000 nM; for IC50: read-out: TNF-α secretion IC50.
The test system of another data set is IL-1β. The experiment in a line: IL-1β secretion (h) (PBMC). The data set is classed as cell-based. To be noted: Homo sapiens, LPS (1 μg/ml), 24 h/37° C., EIA.
The subject of data set [1] is splenic lymphocytes isolated from C57BL/6 mice and CBA mice. The experiment in a line: Immunosuppression ([3H]TMD incorporation in mouse splenic lymphocytes). It is filed as cell-based. The settings on record: "Not active" = less than 25% inhibition at 1000 nM.
Another data set has as its system cytokine release. The experiment in a line: Panel of standard cell-based in vitro assays evaluating cytokine release inhibition. The settings on record: prodrugs compared to the steroid drugs (Examples 27 and 62, respectively). As for the experimental part: The selected compounds of the invention were tested in a panel of standard, cell-based in vitro assays evaluating the cytokine release inhibition and thus the anti-inflammatory activity of a test article. Several potent steroid analogs were identified, namely compounds described in Examples 23, 27, 43, 59 and 62. […] Therefore by masking the pharmacological properties of a respective steroid the mutual prodrug mitigates the oropharyngeal side effects and confines the antiinflammatory activity of a steroid to the endobronchial space, where the lung enzymes (specifically alkaline phosphatase) release the pharmacologically active steroid (see Examples 141-143).

The subject of the next data set is alkaline phosphatase. The data set can be described thus: Conversion of mutual prodrugs after exposure to alkaline phosphatase (ALP experiment).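 On all read-outs here: mutual prodrug and its released products quantified by LCMS over time in buffer with alkaline phosphatase, compared against enzyme-free control buffer, incubations running 25–50 hours.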 To be noted: for Steroid 13 Concentration / Salmeterol Concentration: mutual prodrug 16 + alkaline phosphatase.
Setting [2] is: Mus musculus, Splenic lymphocyte, read-out: Immunosuppresion IC50, mouse splenic lymphocytes, 72 h/37° C., [3H]TMD incorporation.
Where [3] appears, read: read-out: Immunosuppresion IC50, mouse splenic lymphocytes, 72 h/37° C., [3H]TMD incorporation.

Structures are written as SMILES. Where two headings read alike, the source gives them in different places.

Method for alkaline phosphatase: Reaction and control solutions were prepared by adding a 500 μL aliquot of a ˜200 ng/μl solution in 1:1 acetonitrile/water of and the compound 16 (or alternatively 17) to 500 μl of a pH 7.4 buffer solution, containing 5 mM tris(hydroxymethyl)aminomethane, 1 mM ZnCl2, 1 mM MgCl2. For the reaction solutions, the buffer also contained approximately 600 ng/μl of alkaline phosphatase (Sigma-Aldrich) whereas the control buffer solutions contained no enzyme. The reaction and control solutions were incubated at 37° C. for 25 to 50 hours. The solutions were analyzed periodically for the respective mutual prodrug and reaction products by LCMS.
The concentration of the alkaline phosphatase in the reaction buffer was ˜600 ng/μL (the enzyme activity of the solution was not determined).
The concentration of the alkaline phosphatase in the buffer added to the stock solution was ˜600 ng/μl (the enzyme activity of the solution was not determined).

On to `CN1CCN(CC(=O)[C@@]23O[C@H](C4CCCCC4)O[C@@H]2C[C@H]2[C@@H]4CCC5=CC(=O)C=C[C@]5(C)[C@@]4(F)[C@@H](O)C[C@@]23C)CC1` [Example 27, 16,17-[(Cyclohexylmethylene)bis(oxy)]-9-fluoro-11-hydroxy-21-(4-methylpiperazyn-1-yl)-pregna-1,4-diene-3,20-dione[11β,16α(R)]], for which the “TNF-α secretion IC50” value in the data set with TNF-α is “Not active”. The IC50 in the data set on IL-1β came out at 36 nM; in data set [1] (setting [2]), 12 nM. Besides, in the data set on cytokine release, the “anti-inflammatory activity (cytokine release inhibition), assessment in words” value is “potent”. The “Steroid 13 Concentration” value with alkaline phosphatase (0.00 Hours @ 37° C.) was found to be 0.0 nmol/mL; in the data set on alkaline phosphatase (0.59 Hours @ 37° C.) it was 1.6 nmol/mL; in the data set with alkaline phosphatase (1.19 Hours @ 37° C.), 4.1 nmol/mL; in the data set on alkaline phosphatase (2.96 Hours @ 37° C.) it was 15.3 nmol/mL; in the data set on alkaline phosphatase (3.56 Hours @ 37° C.), 20.2 nmol/mL; in the data set with alkaline phosphatase (4.15 Hours @ 37° C.), 21.6 nmol/mL. Besides, the “Steroid 13 Concentration” value was 49.5 nmol/mL in the data set on alkaline phosphatase (10.67 Hours @ 37° C.); 54.6 nmol/mL in the data set on alkaline phosphatase (15.41 Hours @ 37° C.); 62.9 nmol/mL with alkaline phosphatase (19.56 Hours @ 37° C.); 67.3 nmol/mL with alkaline phosphatase (24.30 Hours @ 37° C.); 69.3 nmol/mL in the data set with alkaline phosphatase (30.82 Hours @ 37° C.); 66.5 nmol/mL in the data set on alkaline phosphatase (34.97 Hours @ 37° C.).

Consider `CN1CCN(CC(=O)[C@@]23O[C@H](C4CCCCC4)O[C@@H]2C[C@H]2[C@@H]4CCC5=CC(=O)C=C[C@]5(C)[C@H]4[C@@H](O)C[C@@]23C)CC1` [Example 26, 16,17-[(Cyclohexylmethylene)bis(oxy)]-11-hydroxy-21-(4-methylpiperazyn-1-yl)-pregna-1,4-diene-3,20-dione[11β,16α(R)]], for which the “TNF-α secretion IC50” value with TNF-α was “Not active”. In addition, the IC50 is above 1000 nM with IL-1β and 31 nM in data set [1] (setting [2]).

On to `C[C@]12C=CC(=O)C=C1CC[C@H]1[C@@H]3C[C@H]4O[C@@H](C5CCCCC5)O[C@@]4(C(=O)CSc4ccncc4)[C@@]3(C)C[C@H](O)[C@@]12F` [Example 47, 16,17-[(Cyclohexylmethylene)bis(oxy)]-9-fluoro-11-hydroxy-21-(pyridin-4-yl-thio)-pregna-1,4-diene-3,20-dione[11β,16α(R)]], for which the “TNF-α secretion IC50” value with TNF-α is listed as “Not active”. In data set [1] (setting [2]), the IC50 turned out to be 66 nM.

For `C[C@]12C=CC(=O)C=C1CC[C@@H]1[C@@H]2[C@@H](O)C[C@@]2(C)[C@H]1C[C@H]1O[C@@H](C3CCCCC3)O[C@]12C(=O)CO` [Example 22, 16,17-[(Cyclohexylmethylene)bis(oxy)]-11,21-dihydroxypregna-1,4-diene-3,20-dione[11β,16α(R)]], the IC50 in the data set with TNF-α (Homo sapiens, 24 h) was 12 nM; in the data set on IL-1β it was 2.1 nM; in data set [1] (setting [2]), 1.5 nM.

In the case of `C[C@]12C=CC(=O)C=C1CC[C@H]1[C@@H]3C[C@H]4O[C@@H](C5CCCCC5)O[C@@]4(C(=O)Cn4ccnc4)[C@@]3(C)C[C@H](O)[C@@]12F` [Example 45, 16,17-[(Cyclohexylmethylene)bis(oxy)]-9-fluoro-11-hydroxy-21-(imidazol-1-yl)-pregna-1,4-diene-3,20-dione[11β,16α(R)]], the “TNF-α secretion IC50” value in the data set with TNF-α was “Not active”. Also, in data set [1] (setting [2]), the IC50 was above 1000 nM.

Turning to `C[C@]12C=CC(=O)C=C1CC[C@H]1[C@@H]3C[C@H]4OC(c5cccnc5)O[C@@]4(C(=O)CO)[C@@]3(C)C[C@H](O)[C@@]12F` (single isomer, unassigned) [Example 22R-epimer], the IC50 with TNF-α was 12 nM; in data set [1] (setting [3]), 0.89 nM.

For the molecule `CN1CCC(C2O[C@@H]3C[C@H]4[C@@H]5CCC6=CC(=O)C=C[C@]6(C)[C@@]5(F)[C@@H](O)C[C@]4(C)[C@]3(C(=O)CO)O2)CC1` (stereo partly drawn) [Example 57, 16,17-[(1-Methylpiperidyl-4-methylene)bis(oxy)]-9-fluoro-11,21-dihydroxypregna-1,4-diene-3,20-dione[11β,16α]], in the data set on TNF-α, the “TNF-α secretion IC50” value is listed as “Not active”. Also, the IC50 (in the data set on IL-1β; in data set [1] (setting [2])) was above 1000 nM in each case.

With `C[C@]12C=CC(=O)C=C1CC[C@H]1[C@@H]3C[C@H]4O[C@@H](C5CCCCC5)O[C@@]4(C(=O)CO)[C@@]3(C)C[C@H](O)[C@@]12F` [Example 23, 16,17-[(Cyclohexylmethylene)bis(oxy)]-9-fluoro-11,21-dihydroxypregna-1,4-diene-3,20-dione[11β,16α(R)]], the IC50 in the data set on TNF-α (Homo sapiens, 24 h) was 1.2 nM; in data set [1] (setting [2]) it was 0.34 nM. The “anti-inflammatory activity (cytokine release inhibition), assessment in words” value in the data set with cytokine release is “potent”.

As to `C[C@]12C=CC(=O)C=C1CC[C@H]1[C@@H]3C[C@H]4O[C@@H](C5CCCCC5)O[C@@]4(C(=O)CN4CCOCC4)[C@@]3(C)C[C@H](O)[C@@]12F` [Example 34, 16,17-[(Cyclohexylmethylene)bis(oxy)]-9-fluoro-11-hydroxy-21-(4-morpholin-1-yl)-pregna-1,4-diene-3,20-dione[11β,16α(R)]], the IC50 in the data set with TNF-α (Homo sapiens, 24 h) was above 1000 nM; in data set [1] (setting [2]), 20 nM.

For `C[C@]12C=CC(=O)C=C1CC[C@H]1[C@@H]3C[C@H]4O[C@@H](C5CCCCC5)O[C@@]4(C(=O)CN4CCC4)[C@@]3(C)C[C@H](O)[C@@]12F` [Example 43, 16,17-[(Cyclohexylmethylene)bis(oxy)]-9-fluoro-11-hydroxy-21-(azetidin-1-yl)-pregna-1,4-diene-3,20-dione[11β,16α(R)]], the IC50 is above 1000 nM with TNF-α (Homo sapiens, 24 h) and 8.8 nM in data set [1] (setting [2]). For the same molecule, in the data set with cytokine release, the “anti-inflammatory activity (cytokine release inhibition), assessment in words” value is recorded as “potent”.

`C[C@]12C=CC(=O)C=C1CC[C@H]1[C@@H]3C[C@H]4OC(c5cccnc5)O[C@@]4(C(=O)CO)[C@@]3(C)C[C@H](O)[C@@]12F` (stereo partly shown) [Example 62]: the results for the IC50 (with TNF-α; with IL-1β; in data set [1] (setting [3])) were 11 nM, 350 nM and 1.9 nM, respectively. The “anti-inflammatory activity (cytokine release inhibition), assessment in words” value in the data set with cytokine release is “potent”. Moreover, the “Steroid 14 Concentration” value with alkaline phosphatase (mutual prodrug 17 + alkaline phosphatase, 2.10 Hours @ 37° C.) came out at 22.6 nmol/mL.

For `CN1CCC(C2O[C@@H]3C[C@H]4[C@@H]5CCC6=CC(=O)C=C[C@]6(C)[C@H]5[C@@H](O)C[C@]4(C)[C@]3(C(=O)CO)O2)CC1` (stereo partly drawn) [Example 56, 16,17-[(1-Methylpiperidyl-4-methylene)bis(oxy)]-11,21-dihydroxypregna-1,4-diene-3,20-dione[11β,16α]], the “TNF-α secretion IC50” value in the data set on TNF-α is reported as “Not active”. Besides, in the data set on IL-1β, the IC50 is above 1000 nM. Moreover, the “Immunosuppresion IC50” value in data set [1] (mouse splenic lymphocytes, 72 h/37° C., [3H]TMD incorporation) is “Not active”.

With `C[C@]12C=CC(=O)C=C1CC[C@@H]1[C@@H]2[C@@H](O)C[C@@]2(C)[C@H]1C[C@H]1OC(c3cccnc3)O[C@]12C(=O)CO` (stereo partly shown) [Example 59], the IC50 with TNF-α (Homo sapiens, 24 h) was found to be 85 nM; in data set [1] (setting [2]), 2 nM. Moreover, in the data set on cytokine release, the “anti-inflammatory activity (cytokine release inhibition), assessment in words” value was “potent”.

On to `C[C@]12C=CC(=O)C=C1CC[C@H]1[C@@H]3C[C@H]4OC(c5cccnc5)O[C@@]4(C(=O)CO)[C@@]3(C)C[C@H](O)[C@@]12F` (single isomer, unassigned) [Example 22S-epimer], for which the IC50 with TNF-α was above 1000 nM; in data set [1] (setting [3]), 36 nM.

As to `OCc1cc(C(O)CNCCCCCCOCCCCc2ccccc2)ccc1O` (stereo not shown) [Salmeterol, salmeterol, reference compound], the “Salmeterol Concentration” value in the data set on alkaline phosphatase (0.00 Hours @ 37° C.) was 0.1 nmol/mL; with alkaline phosphatase (0.59 Hours @ 37° C.) it was 1.8 nmol/mL; in the data set on alkaline phosphatase (1.19 Hours @ 37° C.), 4.4 nmol/mL; with alkaline phosphatase (2.96 Hours @ 37° C.), 12.3 nmol/mL; with alkaline phosphatase (3.56 Hours @ 37° C.) it was 14.4 nmol/mL; in the data set with alkaline phosphatase (4.15 Hours @ 37° C.), 17.1 nmol/mL. Also, the “Salmeterol Concentration” value with alkaline phosphatase (10.67 Hours @ 37° C.) worked out at 34.2 nmol/mL; in the data set with alkaline phosphatase (15.41 Hours @ 37° C.), 41.4 nmol/mL; in the data set with alkaline phosphatase (19.56 Hours @ 37° C.), 44.8 nmol/mL; in the data set with alkaline phosphatase (24.30 Hours @ 37° C.) it was 46.9 nmol/mL; in the data set on alkaline phosphatase (30.82 Hours @ 37° C.), 48.1 nmol/mL; in the data set on alkaline phosphatase (34.97 Hours @ 37° C.), 49.6 nmol/mL.

Source of the values: patent US20100209508A1, “Substituted Phenylphosphates as Mutual Prodrugs of Steroids and ß-Agonists for the Treatment of Title Pulmonary Inflammation and Bronchoconstriction” (CORUS PHARMA, INC., priority 2005, published 2010).
